Data set [1] is described as follows: Crystallinity of salt forms by HT-XRPD. The following applies: salt screen solid forms. The class given is physicochemical. The method, then: The precipitated solids were analyzed by high throughput X-ray powder diffractometry (HT XRPD). Liquid phases (both solutions and mother liquors) were evaporated at ambient conditions and the residual solids were analyzed by HT XRPD.
XRPD patterns were obtained using the Ardena T2 high-throughput XRPD set-up. The plates were mounted on a Bruker General Area Detector Diffraction System (GADDS) equipped with a VÅNTEC-500 gas area detector corrected for intensity and geometric variations. The calibration of the measurement accuracy (peaks position) was performed using NIST SRM1976 standard (Corundum).
No background subtraction or curve smoothing was applied to the XRPD patterns.

Data set [2] in a line: Physical stability under Accelerated Aging Conditions (AAC, 40° C./75% RH, 2 days), HT-XRPD. The following applies: for Physical Stability: AAC 40° C./75% RH, 2 days, re-analyzed by HT-XRPD; for physical stability upon exposure to AAC: Example 2; for physical stability upon exposure to AAC / Physically stable after AAC: 40° C./75% RH for 2 days; for Physically stable after AAC: Example 1.

With `NC(=NC(=O)c1nc(Cl)c(N)nc1N)NCc1ccccc1.O=C(O)CCCCC(=O)O` [ADI1], the Crystallinity entry in data set [1] is “Good”. Moreover, the “Physical Stability” value in data set [2] is “Unstable”.

As for `NC(=NC(=O)c1nc(Cl)c(N)nc1N)NCc1ccccc1.O=S(=O)(O)c1ccccc1` [BES1], in data set [1], the Crystallinity entry was “Good”. The “Physical Stability” value in data set [2] is reported as “Unstable”. The matching figures for `N=C(NCc1ccccc1)NC(=O)c1nc(Cl)c(N)nc1N.O=S(=O)(O)c1ccccc1` [BES2]: “Good” and “Unstable”. As to `CCCC(=O)O.NC(=NC(=O)c1nc(Cl)c(N)nc1N)NCc1ccccc1` [BUT2], the Crystallinity result in data set [1] is “Poor”. In addition, the “Physical Stability” value in data set [2] is listed as “Unstable”.

As to `NC(=NC(=O)c1nc(Cl)c(N)nc1N)NCc1ccccc1.O=C(O)C=Cc1ccccc1` [CIN1], the Crystallinity result in data set [1] is on record as “Moderate”. Besides, in data set [2], the “Physical Stability” value is “Stable” and the “physical stability upon exposure to AAC” value is “physically stable”.

Regarding `NC(=NC(=O)c1nc(Cl)c(N)nc1N)NCc1ccccc1.O=C(O)C=Cc1ccccc1` [CIN2], the Crystallinity entry in data set [1] was “Good”. Moreover, in data set [2], the “Physical Stability” value was “Stable” and the “physical stability upon exposure to AAC” value is reported as “physically stable”. As to `NC(=NC(=O)c1nc(Cl)c(N)nc1N)NCc1ccccc1.O=C(O)CC(O)(CC(=O)O)C(=O)O` [CIT1], in data set [1], the Crystallinity entry is listed as “Moderate/Poor”. In data set [2], the “Physical Stability” value is on record as “Unstable”. On to `NC(=NC(=O)c1nc(Cl)c(N)nc1N)NCc1ccccc1.O=C(O)CC(O)(CC(=O)O)C(=O)O` [CIT2], for which, in data set [1], the Crystallinity entry is “Good”. `Cl.Cl.N=C(NCc1ccccc1)NC(=O)c1nc(Cl)c(N)nc1N` [Di-HCl1]: the “Physically stable after AAC” value in data set [2] is “physically unstable”. In the case of `NC(=NC(=O)c1nc(Cl)c(N)nc1N)NCc1ccccc1.O=S(=O)(O)CCS(=O)(=O)O` [EDY1], the Crystallinity result in data set [1] is given as “Good”. The “Physical Stability” value in data set [2] is “Unstable”. Regarding `NC(=NC(=O)c1nc(Cl)c(N)nc1N)NCc1ccccc1.O=S(=O)(O)CCS(=O)(=O)O` [EDY2], the Crystallinity entry in data set [1] is “Good”. Besides, in data set [2], the “Physical Stability” value is reported as “Stable” and the “physical stability upon exposure to AAC” value is listed as “physically stable”. Consider `NC(=NC(=O)c1nc(Cl)c(N)nc1N)NCc1ccccc1.O=S(=O)(O)CCS(=O)(=O)O` [EDY3], for which, in data set [1], the Crystallinity result is reported as “Good”. Further, in data set [2], the “Physical Stability” value is listed as “Stable” and the “physical stability upon exposure to AAC” value is listed as “physically stable”.

Regarding `NC(=NC(=O)c1nc(Cl)c(N)nc1N)NCc1ccccc1.NC(=NC(=O)c1nc(Cl)c(N)nc1N)NCc1ccccc1.O=S(=O)(O)CCS(=O)(=O)O` [EDY4], in data set [1], the Crystallinity result is listed as “Good”. For the same compound, the “Physical Stability” value in data set [2] is on record as “Unstable”. As for `NC(=NC(=O)c1nc(Cl)c(N)nc1N)NCc1ccccc1.O=S(=O)(O)CCS(=O)(=O)O` [EDY5], the Crystallinity result in data set [1] is recorded as “Moderate”.

For `CCS(=O)(=O)O.NC(=NC(=O)c1nc(Cl)c(N)nc1N)NCc1ccccc1` [ESY1], the Crystallinity entry in data set [1] was “Good”. Also, in data set [2], the “Physical Stability” value is given as “Stable” and the “physical stability upon exposure to AAC” value is listed as “physically stable”. `CCS(=O)(=O)O.NC(=NC(=O)c1nc(Cl)c(N)nc1N)NCc1ccccc1` [ESY3]: in data set [1], the Crystallinity result was “Poor”. For the same compound, in data set [2], the “Physical Stability” value is reported as “Unstable”. For `CCS(=O)(=O)O.NC(=NC(=O)c1nc(Cl)c(N)nc1N)NCc1ccccc1` [ESY4], the Crystallinity entry in data set [1] is “Moderate”. For `N=C(NCc1ccccc1)NC(=O)c1nc(Cl)c(N)nc1N.O=CO` [FOR1], the Crystallinity result in data set [1] is given as “Good”.

For the compound `NC(=NC(=O)c1nc(Cl)c(N)nc1N)NCc1ccccc1.O=CO` [FOR2], the Crystallinity entry in data set [1] is on record as “Moderate/Poor”. In data set [2], the “Physical Stability” value is “Unstable”.

As to `NC(=NC(=O)c1nc(Cl)c(N)nc1N)NCc1ccccc1.O=CO` [FOR4], in data set [1], the Crystallinity entry is given as “Good”. Same read-out and setting: to `NC(=NC(=O)c1nc(Cl)c(N)nc1N)NCc1ccccc1.O=CO` [FOR5] belongs “Good”. On to `NC(=NCc1ccccc1)NC(=O)c1nc(Cl)c(N)nc1N.O=C(O)C=CC(=O)O` [FUM1], for which, in data set [1], the Crystallinity result is recorded as “Good”. In addition, the “Physical Stability” value in data set [2] is recorded as “Unstable”. On to `N=C(NCc1ccccc1)NC(=O)c1nc(Cl)c(N)nc1N.O=C(O)C=CC(=O)O` [FUM2], for which the Crystallinity entry in data set [1] was “Good”. Further, in data set [2], the “Physical Stability” value is listed as “Stable” and the “physical stability upon exposure to AAC” value is given as “physically stable”. For `NC(=NC(=O)c1nc(Cl)c(N)nc1N)NCc1ccccc1.O=C(O)c1ccco1` [FUR1] the same measures were “Good”, “Stable” and “physically stable”. On to `NC(=NC(=O)c1nc(Cl)c(N)nc1N)NCc1ccccc1.O=C(O)c1ccco1` [FUR2], for which the Crystallinity result in data set [1] is “Good”. As to `NC(=NC(=O)c1nc(Cl)c(N)nc1N)NCc1ccccc1.O=C(O)c1ccco1` [FUR3], the Crystallinity entry in data set [1] is recorded as “Good”. Moreover, the “Physical Stability” value in data set [2] is given as “Unstable”. In the case of `NC(=NC(=O)c1nc(Cl)c(N)nc1N)NCc1ccccc1.O=C(O)c1cc(O)ccc1O` [GEN1], in data set [1], the Crystallinity entry is “Moderate”. Also, in data set [2], the “Physical Stability” value is “Stable” and the “physical stability upon exposure to AAC” value is listed as “physically stable”. Turning to `N=C(NCc1ccccc1)NC(=O)c1nc(Cl)c(N)nc1N.O=C(O)c1cc(O)ccc1O` [GEN2], the Crystallinity entry in data set [1] is given as “Moderate”. Further, in data set [2], the “Physical Stability” value is “Stable” and the “physical stability upon exposure to AAC” value was “physically stable”. `NC(=NC(=O)c1nc(Cl)c(N)nc1N)NCc1ccccc1.O=C(O)c1cc(O)ccc1O` [GEN3]: the Crystallinity entry in data set [1] is given as “Moderate”. In addition, the “Physical Stability” value in data set [2] is “Unstable”. With `Br.Br.NC(=NC(=O)c1nc(Cl)c(N)nc1N)NCc1ccccc1` [HBR3], in data set [1], the Crystallinity entry is “Moderate”. The “Physical Stability” value in data set [2] is listed as “Unstable”. With `Br.NC(=NC(=O)c1nc(Cl)c(N)nc1N)NCc1ccccc1` [HBR6], the Crystallinity result in data set [1] is “Good”. For `Br.N=C(NCc1ccccc1)NC(=O)c1nc(Cl)c(N)nc1N` [HBR7], the Crystallinity entry in data set [1] is on record as “Good”. Regarding `Br.N=C(NCc1ccccc1)NC(=O)c1nc(Cl)c(N)nc1N` [HBR8], the Crystallinity result in data set [1] is “Good”. `Br.NC(=NC(=O)c1nc(Cl)c(N)nc1N)NCc1ccccc1` [HBR10]: the Crystallinity result in data set [1] is given as “Moderate”. In addition, in data set [2], the “Physical Stability” value was “Unstable”.

Consider `NC(=NC(=O)c1nc(Cl)c(N)nc1N)NCc1ccccc1.O=C(O)CNC(=O)c1ccccc1` [HIP1], for which, in data set [1], the Crystallinity result is on record as “Good”. The “Physical Stability” value in data set [2] is recorded as “Unstable”. `NC(=NC(=O)c1nc(Cl)c(N)nc1N)NCc1ccccc1.O=C(O)CNC(=O)c1ccccc1` [HIP2]: the Crystallinity entry in data set [1] was “Poor”. Consider `NC(=NC(=O)c1nc(Cl)c(N)nc1N)NCc1ccccc1.O=C(O)C=CC(=O)O` [MAE2], for which, in data set [1], the Crystallinity entry is reported as “Good”. Further, in data set [2], the “Physical Stability” value is “Stable” and the “physical stability upon exposure to AAC” value is “physically stable”. For `NC(=NC(=O)c1nc(Cl)c(N)nc1N)NCc1ccccc1.O=C(O)C=CC(=O)O` [MAE3] the same measures were “Moderate”, “Stable” and “physically stable”.

As for `NC(=NC(=O)c1nc(Cl)c(N)nc1N)NCc1ccccc1.O=C(O)C[C@H](O)C(=O)O` [MAL1], the Crystallinity entry in data set [1] is “Good”. For the same compound, in data set [2], the “Physical Stability” value is recorded as “Stable” and the “physical stability upon exposure to AAC” value was “physically stable”. For the compound `N=C(NCc1ccccc1)NC(=O)c1nc(Cl)c(N)nc1N.O=C(O)CC(=O)O` [MAO4], the Crystallinity entry in data set [1] is listed as “Good”. On the same count and under the same terms, to `CS(=O)(=O)O.NC(=NC(=O)c1nc(Cl)c(N)nc1N)NCc1ccccc1` [MES3] belongs “Moderate”. In the case of `N=C(NCc1ccccc1)NC(=O)c1nc(Cl)c(N)nc1N.O=[N+]([O-])O` [NIT1], in data set [2], the “Physically stable after AAC” value is reported as “physically unstable”.

Regarding `NC(=NCc1ccccc1)NC(=O)c1nc(Cl)c(N)nc1N.O=[N+]([O-])O` [NIT2], in data set [2], the “Physically stable after AAC” value was “physically unstable”. As to `NC(=NC(=O)c1nc(Cl)c(N)nc1N)NCc1ccccc1.O=[N+]([O-])O` [NIT4], the “Physically stable after AAC” value in data set [2] is listed as “physically unstable”. `N=C(NCc1ccccc1)NC(=O)c1nc(Cl)c(N)nc1N.O=S(=O)(O)c1ccc2ccccc2c1` [NSA1]: the Crystallinity result in data set [1] is given as “Good”. Moreover, the “Physical Stability” value in data set [2] was “Unstable”.

Consider `NC(=NC(=O)c1nc(Cl)c(N)nc1N)NCc1ccccc1.O=C(O)c1cc2ccccc2c(Cc2c(O)c(C(=O)O)cc3ccccc23)c1O` [PAM4], for which, in data set [1], the Crystallinity result is reported as “Poor”. Consider `N=C(NCc1ccccc1)NC(=O)c1nc(Cl)c(N)nc1N.O=P(O)(O)O` [PHO1], for which the “Physically stable after AAC” value in data set [2] is “physically unstable”. On to `CCC(=O)O.NC(=NC(=O)c1nc(Cl)c(N)nc1N)NCc1ccccc1` [PRO5], for which the Crystallinity entry in data set [1] was “Moderate”. In the case of `NC(=NC(=O)c1nc(Cl)c(N)nc1N)NCc1ccccc1.O=C(O)c1ccccc1O` [SAL2], the Crystallinity result in data set [1] is “Poor”. Consider `NC(=NC(=O)c1nc(Cl)c(N)nc1N)NCc1ccccc1.O=S(=O)(O)O` [SUL2], for which the “Physically stable after AAC” value in data set [2] is given as “physically unstable”.

On to `Cc1ccc(S(=O)(=O)O)cc1.N=C(NCc1ccccc1)NC(=O)c1nc(Cl)c(N)nc1N` [TOS2a], for which the “Physically stable after AAC” value in data set [2] is listed as “physically unstable”. The same measure, in the same setting: to `Cc1ccc(S(=O)(=O)O)cc1.N=C(NCc1ccccc1)NC(=O)c1nc(Cl)c(N)nc1N` [TOS3] belongs “physically stable”. As for `CCCCC(=O)O.NC(=NC(=O)c1nc(Cl)c(N)nc1N)NCc1ccccc1` [VAL2], in data set [1], the Crystallinity result is recorded as “Poor”.

These data come from patent US20250002463A1, “NEW SALT FORMS OF AMILORIDE AND ITS DERIVATIVES FOR PHARMACEUTICAL USE” (PSOMRI Holding AB, priority 2021, published 2025).
